The term Ki denotes a measure of affinity in units of concentration, obtained from inhibition or displacement.

The record followed here is US7897593B2, “HIV integrase inhibitors” (priority 2006, dated 2011).

Where two headings read alike, the source gives them in different places. Where only a bound is given, the exact number is not on record here.

The target in experiment [1] is T1, purified integrase (Human immunodeficiency virus type 1 group M subtype B, UniProt P12497).
T1 construct: Recombinant integrase (0.26 ng) was incubated with the beads
The experiment is described as follows: HIV-Integrase binding assay (competition with radiolabeled integrase inhibitor). As to conditions: competition with [3H]-labeled integrase inhibitor; Cheng and Prusoff. The protocol: HIV-Integrase binding assay. In this assay competitive binding experiments with test compounds and a radiolabeled integrase inhibitor (compound A) are performed against purified integrase. […] Binding reactions were carried out in 96-well white polystyrene assay plates (Corning, #3600). The following was added sequentially to each well: 20 μl of water or 20μl of human serum (Cellgro Cat# 35-060-CL), 5 μl of serially diluted compound (in 50% DMSO/50% integrase SPA buffer), 5 μl of [^3H]-compound I (6,000 cpm/μl in SPA buffer) and 20 μl of bead/DNA/enzyme complex. The plates were shaken for 2 hours and then allowed to sit at room temperature without shaking overnight. The [^3H]-compound I binding was measured using a Topcount scintillation counter. Cheng and Prusoff equations were used to convert the inhibition of compound 1 binding into the corresponding Ki value. Activity equal to A refers to a compound having Ki=0.001 to 0.003 μM while B and C denote compounds having Ki=0.003 to 0.05 μM and Ki≧0.050 μM respectively.

Experiment [2] has as its system recombinant NL-Rluc virus. Briefly: Inhibition of HIV replication. As to conditions: three serum conditions described, the one tabulated is not stated. The format is cell-based.
The mark [3] stands for this setting: Human immunodeficiency virus 1, read-out: Antiviral Activity, NL-RLuc virus.
Setting [4] is: read-out: Antiviral Activity, NL-RLuc virus.

In turn, `CN(C)C(=O)C(=O)N1CCC2(CC1)NCCn1c2nc(C(=O)NCc2ccc(F)cc2)c(O)c1=O` [Example 34, 1-(2-(Dimethylamino)-2-oxoacetyl)-N-(4-fluorobenzyl)-3′-hydroxy-4′-oxo-4′,6′,7′,8′-tetrahydrospiro[piperidine-4,9′-pyrazino[1,2-a]pyrimidine]-2′-carboxamide] displayed a Ki in experiment [1] of 3 to 50 nM. Moreover, in experiment [2] (setting [3]), the EC50 lay in the range of 10 to 100 nM.

With `Cc1nnc(C(=O)N2CCC3(CC2)NCCn2c3nc(C(=O)NCc3ccc(F)cc3)c(O)c2=O)o1` [Example 35, N-(4-Fluorobenzyl)-3′-hydroxy-1-(5-methyl-1,3,4-oxadiazole-2-carbonyl)-4′-oxo-4′,6′,7′,8′-tetrahydrospiro[piperidine-4,9′-pyrazino[1,2-a]pyrimidine]-2′-carboxamide], the Ki in experiment [1] is 3 to 50 nM. Further, the EC50 in experiment [2] (setting [3]) was in the range of 10 to 100 nM.

In turn, `Cc1nnc(C(=O)N2CCC3(C2)OCCn2c3nc(C(=O)NCc3ccc(F)cc3)c(O)c2=O)o1` (stereo not drawn) [Example 44, N-(4-Fluorobenzyl)-3-hydroxy-1′-(5-methyl-1,3,4-oxadiazole-2-carbonyl)-4-oxo-6,7-dihydro-4H-spiro[pyrimido[2,1-c][1,4]oxazine-9,3′-pyrrolidine]-2-carboxamide] came in with a Ki in experiment [1] of 1 to 3 nM. For the same compound, the EC50 in experiment [2] (setting [3]) lay within 10 to 100 nM.

In experiment [1], `CCOC(=O)C(=O)N1CCC2(C1)OCCn1c2nc(C(=O)NCc2ccc(F)cc2)c(O)c1=O` (stereo not drawn) [Example 45, Ethyl 2-(2-(4-fluorobenzylcarbamoyl)-3-hydroxy-4-oxo-6,7-dihydro-4H-spiro[pyrimido[2,1-c][1,4]oxazine-9,3′-pyrrolidine]-1′-yl)-2-oxoacetate] showed a Ki of 1 to 3 nM. Further, the EC50 in experiment [2] (setting [3]) fell in the range of 10 to 100 nM.

Compound `Cc1nnc(C(=O)N2CCC3(C2)OCCn2c3nc(C(=O)NCc3ccc(F)cc3-n3ncnc3C)c(O)c2=O)o1` (stereo not drawn) [Example 46, N-(4-Fluoro-2-(5-methyl-1H-1,2,4-triazol-1-yl)benzyl)-3-hydroxy-1′-(5-methyl-1,3,4-oxadiazole-2-carbonyl)-4-oxo-6,7-dihydro-4H-spiro[pyrimido[2,1-c][1,4]oxazine-9,3′-pyrrolidine]-2-carboxamide] returned a Ki in experiment [1] of 3 to 50 nM. Moreover, in experiment [2] (setting [3]), the EC50 was above 100 nM.

`CCOC(=O)C(=O)N1CCC2(C1)OCCn1c2nc(C(=O)NCc2ccc(F)cc2-n2ncnc2C)c(O)c1=O` (stereo not drawn) [Example 47, Ethyl 2-(2-(4-fluoro-2-(5-methyl-1H-1,2,4-triazol-1-yl)benzylcarbamoyl)-3-hydroxy-4-oxo-6,7-dihydro-4H-spiro[pyrimido[2,1-c][1,4]oxazine-9,3′-pyrrolidine]-1′-yl)-2-oxoacetate] had a Ki in experiment [1] of 3 to 50 nM. In addition, the EC50 in experiment [2] (setting [3]) is above 100 nM.

Compound `O=C(NCc1ccc(F)cc1)c1nc2n(c(=O)c1O)CCCOC21CCN(C(=O)OCc2ccccc2)CC1` [Example 48] yielded a Ki in experiment [1] of 1 to 3 nM. For the same compound, the EC50 in experiment [2] (setting [3]) was 10 to 100 nM.

With `O=C(NCc1ccc(F)cc1N1CCCCS1(=O)=O)c1nc2n(c(=O)c1O)CCCOC21CCN(C(=O)OCc2ccccc2)CC1` [Example 51], the Ki in experiment [1] lay within 3 to 50 nM. In addition, in experiment [2] (setting [3]), the EC50 is 1 to 10 nM.

The compound `Cc1ncnn1-c1cc(F)ccc1CNC(=O)c1nc2n(c(=O)c1O)CCCOC21CCN(C(=O)OCc2ccccc2)CC1` [Example 53] came in with a Ki in experiment [1] of 3 to 50 nM. Besides, the EC50 in experiment [2] (setting [3]) is 1 to 10 nM.

With `Cc1ncnn1-c1cc(F)ccc1CNC(=O)c1nc2n(c(=O)c1O)CCOCC21CCN(C(=O)OCc2ccccc2)CC1` [Example 55], the Ki in experiment [1] was in the range of 3 to 50 nM. In addition, in experiment [2] (setting [3]), the EC50 lay within 1 to 10 nM.

Consider `CC(=O)N1CCC2(CC1)OCCCn1c2nc(C(=O)NCc2ccc(F)cc2)c(O)c1=O` [Example 57, 1-Acetyl-N-(4-fluorobenzyl)-3′-hydroxy-4′-oxo-4′,6′,7′,8′-tetrahydrospiro-[piperidine-4,10′-pyrimido[2,1-c][1,4]oxazepine]-2′-carboxamide], for which the Ki in experiment [1] was in the range of 1 to 3 nM. Further, in experiment [2] (setting [3]), the EC50 lay within 1 to 10 nM.

In experiment [1], `COC(=O)N1CCC2(CC1)OCCCn1c2nc(C(=O)NCc2ccc(F)cc2)c(O)c1=O` [Example 58, Methyl 2′-(4-fluorobenzylcarbamoyl)-3′-hydroxy-4′-oxo-4′,6′,7′,8′-tetrahydrospiro[piperidine-4,10′-pyrimido[2,1-c][1,4]oxazepine]-1-carboxylate] gave a Ki of 1 to 3 nM. Moreover, the EC50 in experiment [2] (setting [3]) fell in the range of 1 to 10 nM.

For `CN(C)C(=O)N1CCC2(CC1)OCCCn1c2nc(C(=O)NCc2ccc(F)cc2)c(O)c1=O` [Example 59], the Ki in experiment [1] lay in the range of 1 to 3 nM. Moreover, the EC50 in experiment [2] (setting [3]) lay within 1 to 10 nM.

In experiment [1], `CS(=O)(=O)N1CCC2(CC1)OCCCn1c2nc(C(=O)NCc2ccc(F)cc2)c(O)c1=O` [Example 60] had a Ki of 1 to 3 nM. Besides, the EC50 in experiment [2] (setting [3]) is 1 to 10 nM.

In experiment [1], `CN(C)S(=O)(=O)N1CCC2(CC1)OCCCn1c2nc(C(=O)NCc2ccc(F)cc2)c(O)c1=O` [Example 61] displayed a Ki of 1 to 3 nM. Also, the EC50 in experiment [2] (setting [3]) lay in the range of 1 to 10 nM.

On to `Cc1ncnn1-c1cc(F)ccc1CNC(=O)c1nc2n(c(=O)c1O)CCCOC21CCN(S(C)(=O)=O)CC1` [Example 62], for which the Ki in experiment [1] is 3 to 50 nM. For the same compound, the EC50 in experiment [2] (setting [4]) lay within 10 to 100 nM.

`CC(=O)N1CCC2(CC1)OCCCn1c2nc(C(=O)NCc2ccc(F)cc2-n2ncnc2C)c(O)c1=O` [Example 63]: in experiment [1], the Ki lay in the range of 3 to 50 nM. The EC50 in experiment [2] (setting [3]) was in the range of 10 to 100 nM.

Turning to `COC(=O)N1CCC2(CC1)OCCCn1c2nc(C(=O)NCc2ccc(F)cc2-n2ncnc2C)c(O)c1=O` [Example 64], the Ki in experiment [1] lay within 3 to 50 nM. For the same compound, the EC50 in experiment [2] (setting [3]) was in the range of 1 to 10 nM.

`Cc1ncnn1-c1cc(F)ccc1CNC(=O)c1nc2n(c(=O)c1O)CCCOC21CCN(C(=O)N(C)C)CC1` [Example 65] came in with a Ki in experiment [1] of 3 to 50 nM. Moreover, in experiment [2] (setting [3]), the EC50 lay within 1 to 10 nM.

`Cc1ncnn1-c1cc(F)ccc1CNC(=O)c1nc2n(c(=O)c1O)CCCOC21CCN(S(=O)(=O)N(C)C)CC1` [Example 66]: the Ki in experiment [1] was 3 to 50 nM. Also, in experiment [2] (setting [3]), the EC50 was in the range of 1 to 10 nM.

As to `Cc1nnc(C(=O)N2CCC3(CC2)OCCCn2c3nc(C(=O)NCc3ccc(F)cc3-n3ncnc3C)c(O)c2=O)o1` [Example 67], the Ki in experiment [1] is 3 to 50 nM. In experiment [2] (setting [3]), the EC50 lay in the range of 10 to 100 nM.

Turning to `CN(C)S(=O)(=O)N1CCC2(CC1)COCCn1c2nc(C(=O)NCc2ccc(F)cc2)c(O)c1=O` [Example 68], in experiment [1], the Ki fell in the range of 3 to 50 nM. For the same compound, the EC50 in experiment [2] (setting [3]) lay within 10 to 100 nM.

Compound `CC(=O)N1CCC2(CC1)COCCn1c2nc(C(=O)NCc2ccc(F)cc2-n2ncnc2C)c(O)c1=O` [Example 69] displayed a Ki in experiment [1] of 3 to 50 nM. The EC50 in experiment [2] (setting [3]) was above 100 nM.

In the case of `Cc1ncnn1-c1cc(F)ccc1CNC(=O)c1nc2n(c(=O)c1O)CCOCC21CCN(S(=O)(=O)N(C)C)CC1` [Example 70], in experiment [1], the Ki lay within 3 to 50 nM. For the same compound, the EC50 in experiment [2] (setting [3]) lay within 10 to 100 nM.

Compound `Cc1ncnn1-c1cc(F)ccc1CNC(=O)c1nc2n(c(=O)c1O)CCOCC21CCN(C(=O)N(C)C)CC1` [Example 71] came in with a Ki in experiment [1] of 3 to 50 nM. The EC50 in experiment [2] (setting [3]) lay in the range of 10 to 100 nM.

In experiment [1], `COC(=O)N1CCC2(CC1)COCCn1c2nc(C(=O)NCc2ccc(F)cc2-n2ncnc2C)c(O)c1=O` [Example 72] came in with an inhibition constant Ki of 3 to 50 nM. Further, the EC50 in experiment [2] (setting [3]) is 10 to 100 nM.

In experiment [1], `Cc1ncnn1-c1cc(F)ccc1CNC(=O)c1nc2n(c(=O)c1O)CCCOC21CCN(S(C)(=O)=O)CC1` [Example 73] returned a Ki of 3 to 50 nM. Besides, in experiment [2] (setting [4]), the EC50 is above 100 nM.
